For orientation: IC50 means the concentration that inhibits the measured activity by half.

These results are taken from article PMC4971421, “Redox-Dependent Modulation of T-Type Ca^2+ Channels in Sensory Neurons Contributes to Acute Anti-Nociceptive Effect of Substance P” (Antioxidants & Redox Signaling, 2016).

Read-outs that look alike come from different tables or passages of the source.

Test [1] deals with rat hind paw. The test is described as follows: BK-induced nocifensive behavior, pre-injection protocol. Conditions: pre-injection 50 μl; 1–10 nmol/site, 5 min before BK 10 nmol/site. It is filed as in vivo. The protocol:
Sprague–Dawley rats (body weight, 170–180 g) were grouped randomly and allowed to acclimate for at least 30 min in a transparent observation chamber before the experiment. Animals received a 50-μl intraplantar injection of ST101 (0.001–10 nmol/site), BK (10 nmol/site), RTG (1–10 nmol/site), Z944 (0.05–5 nmol/site), SP (0.5–5 nmol/site), or saline, respectively, into the right hind paw. For evaluation of the acute “spontaneous” pain, animals were video-recorded for 30 min after the injection and protective (“nocifensive”) behavior was analyzed as time spent licking, biting, lifting, and flinching the injected paw. The analyses were performed by an observer who was unaware of treatment allocations. In the pre-injection experiments, the right hind paw of the animal received a pre-injection of 50 μl Z944 (0.05–0.5 nmol/site), RTG (1–10 nmol/site), SP (0.5 nmol/site), Z944 (0.05–0.5 nmol/site)+RTG (1 nmol/site), or saline; 5 min later, on the same paw, the animal received a further 50-μl injection of BK (10 nmol/site) together with the pre-injection drug mix. Nocifensive behavior was analyzed as described earlier.
The in vivo CaV3.2 knock-down was performed as described earlier ([3]) by using the same ODN sequences that were synthesized by SBS Genetech. AS ODNs had the following sequence: […]. The mismatch ODNs of the following sequence were used as a negative control: […]. The mismatch ODN was not complementary to any known nucleotide sequence. ODNs were reconstituted in saline before injection. ODNs (12.5 μg/rat in 10 μl of saline) or saline were injected intrathecally (i.t.) between the L5 and L6 dorsal spinous processes as described earlier ([3], [42]) under isoflurane anesthesia. The treatment was repeated twice daily for 4 days. The pain tests were performed on the next day after the last injection. After behavioral testing, animals were humanly sacrificed; lumbar DRGs were extracted and analyzed for the knock-down efficiency by comparing the Cacna1h mRNA levels in lumbar (L4 to L6) DRGs of the saline-injected, mismatch ODN-injected, and AS ODN-injected animals using RT-PCR. The same Cacna1h and Gapdh primers as in siRNA experiments were used for RT-PCR.

Test [2] concerns rat hind paw. The test is described as follows: Hargreaves test, paw withdrawal latency to noxious heat. It is filed as in vivo. Conditions: hind-paw injection 50 μl; 0.1–10 nmol/site; 8 min after injection. On the procedure:
For measurement of thermal hyperalgesia, the change in the latency of hind-paw withdrawal in response to noxious heat was recorded using the Hargreaves’ plantar method (Ugo Basile) at 8 min after the hind-paw injection of drugs; the heat source was set to 25% of the maximal intensity.

Another test has as its target T1, CaV3.2 (Homo sapiens, UniProt O95180).
T1 construct: expressed in transfected cells; host or cells: HEK293 cells, transient transfection with Lipofectamine 2000; The CaV3.2 cDNA was a gift of Dr E. Perez-Reyes; The NK1 cDNA was from the Missouri S&T cDNA Resource Center
As to the kind of experiment: Recombinant CaV3.2 current in HEK293 cells co-transfected with NK1 receptor, perforated patch. It is filed as cell-based. The protocol:
(§1) DRG neurons from adult male Sprague–Dawley rats (170–180 g) were dissociated as previously described ([13], [29]) and cultured in DMEM supplemented with GlutaMax I, 10% fetal calf serum, penicillin (50 U/ml), and streptomycin (50 μg/ml) on glass coverslips that were coated with poly-D-lysine for 2–5 days in a humidified incubator (37°C, 5% CO2). No growth factors were added to the culture media. HEK 293 cells were cultured in the same DMEM media; cells were passaged every 2 days. Human NK1 receptor (GenBank accession No. AY462098) complementary DNA (cDNA) was from the Missouri Science and Technology cDNA Resource Center. WtCaV3.1 (GenBank accession No. AF027984), wtCaV3.2 (GenBank accession No. AF051946), CaV3.1Q172H, and CaV3.2H191Q were kindly provided by Dr E. Perez-Reyes (University of Virginia). HEK293 cells were transfected using Lipofectamine 2000 (Invitrogen) according to the manufacturer's instructions. ST101 was synthesized in house; Z944 was from Toronto Research Chemicals; PTX was from Enzo Life Science; and FluoZin-3AM was from Life Technologies. All other chemicals were from Sigma.
In recordings from HEK 293 cells, amphotericin B-perforated patch-clamp technique was used ([13]). The pipette solution contained the following (in mM): 155 CsCl; 10 HEPES; 1 EGTA; and 4 MgCl2 supplemented with amphotericin B (250 μg/ml), pH 7.4 adjusted with CsOH. The bath solution was the same as for DRG neuron recordings. The access resistance was typically within 8–12 MΩ.
In experiments with H2O2, 3% agar-salt (3 M KCl) bridges were used. Concentration dependence of CaV3.2 channel inhibition by zinc was fit to the two-component logistic function:
where N0 is the total amount of zinc-binding sites, N0(max1) is the amount of high-affinity binding sites, N0(max2) is the amount of low-affinity binding sites, Imax is the maximal CaV3.2 peak current amplitude, IC50 is the [Zn^2+] necessary for half-maximal inhibition, and nH is the Hill coefficient. The concentration dependency of the S9SP effect was fit to the one-component logistic function: […]

Test [3] has as its system T-type Ca^2+ channels (LVA Ca^2+ current) in DRG neurons. As to the kind of experiment: LVA (T-type) Ca2+ current, whole-cell patch clamp, cultured small-diameter DRG neurons. It is filed as cell-based, rat. Conditions: for effect on S9SP-mediated T-type current inhibition: 1 μM S9SP. On the procedure: as §1
All recordings were made using Multiclamp 700B amplifier in combination with pCLAMP 10.4 software (Molecular Devices). Voltage-clamp recordings from DRG neurons were made using whole-cell patch clamp. The standard bath solution contained the following (in mM): 150 TEA-Cl; 2.5 CsCl; 2.5 CaCl2; 10 HEPES; 0.5 MgCl2; and 10 glucose (pH 7.4 adjusted with CsOH). The standard pipette solution contained the following (in mM): 110 CsCl; 3 MgCl2; 10 EGTA; 10 HEPES; 3 Mg-ATP; and 0.6 GTP (pH 7.4 adjusted with CsOH). The access resistance was typically within 4–8 MΩ. T-type calcium currents (LVA) were measured by 50 ms square voltage pulses to −40 mV from a holding potential of −90 mV. HVA currents were measured by 200 ms square voltage pulses to 0 mV from a holding potential of −90 mV.
where y is the current inhibition; A1 and A2 are the maximum and minimum effects, respectively; x is the S9SP concentration; and nH is the Hill coefficient.
In general terms: Patch clamp records ionic current or voltage across a cell membrane.

In test [4] the test system is intracellular zinc levels in DRG neurons. As to the kind of experiment: Intracellular zinc imaging with FluoZin-3AM. The test is classed as cell-based, rat. Conditions: for effect on zinc levels elevated by ZnPy: in the presence of 10 μM ZnPy. On the procedure:
Changes in the intracellular zinc levels were evaluated using fluorescence imaging. DRG cultures were loaded with FluoZin-3AM (5 μM for 30 min at 37°C in the presence of 0.02% pluronic F-127). Cells were washed with extracellular bath solution composed of the following (in mM): 160 NaCl; 2.5 KCl; 2 CaCl2; 1 MgCl2; and 10 HEPES (pH 7.4 adjusted with NaOH); they were imaged using a Leica SP5 fluorescence imaging system assembled on a Leica DMI6000 microscope and illuminated with 488 nm light for 1200 ms (400 Hz) with a 2 s interval. Solutions were applied using a gravity perfusion system.

T1 sequence (O95180 whole entry): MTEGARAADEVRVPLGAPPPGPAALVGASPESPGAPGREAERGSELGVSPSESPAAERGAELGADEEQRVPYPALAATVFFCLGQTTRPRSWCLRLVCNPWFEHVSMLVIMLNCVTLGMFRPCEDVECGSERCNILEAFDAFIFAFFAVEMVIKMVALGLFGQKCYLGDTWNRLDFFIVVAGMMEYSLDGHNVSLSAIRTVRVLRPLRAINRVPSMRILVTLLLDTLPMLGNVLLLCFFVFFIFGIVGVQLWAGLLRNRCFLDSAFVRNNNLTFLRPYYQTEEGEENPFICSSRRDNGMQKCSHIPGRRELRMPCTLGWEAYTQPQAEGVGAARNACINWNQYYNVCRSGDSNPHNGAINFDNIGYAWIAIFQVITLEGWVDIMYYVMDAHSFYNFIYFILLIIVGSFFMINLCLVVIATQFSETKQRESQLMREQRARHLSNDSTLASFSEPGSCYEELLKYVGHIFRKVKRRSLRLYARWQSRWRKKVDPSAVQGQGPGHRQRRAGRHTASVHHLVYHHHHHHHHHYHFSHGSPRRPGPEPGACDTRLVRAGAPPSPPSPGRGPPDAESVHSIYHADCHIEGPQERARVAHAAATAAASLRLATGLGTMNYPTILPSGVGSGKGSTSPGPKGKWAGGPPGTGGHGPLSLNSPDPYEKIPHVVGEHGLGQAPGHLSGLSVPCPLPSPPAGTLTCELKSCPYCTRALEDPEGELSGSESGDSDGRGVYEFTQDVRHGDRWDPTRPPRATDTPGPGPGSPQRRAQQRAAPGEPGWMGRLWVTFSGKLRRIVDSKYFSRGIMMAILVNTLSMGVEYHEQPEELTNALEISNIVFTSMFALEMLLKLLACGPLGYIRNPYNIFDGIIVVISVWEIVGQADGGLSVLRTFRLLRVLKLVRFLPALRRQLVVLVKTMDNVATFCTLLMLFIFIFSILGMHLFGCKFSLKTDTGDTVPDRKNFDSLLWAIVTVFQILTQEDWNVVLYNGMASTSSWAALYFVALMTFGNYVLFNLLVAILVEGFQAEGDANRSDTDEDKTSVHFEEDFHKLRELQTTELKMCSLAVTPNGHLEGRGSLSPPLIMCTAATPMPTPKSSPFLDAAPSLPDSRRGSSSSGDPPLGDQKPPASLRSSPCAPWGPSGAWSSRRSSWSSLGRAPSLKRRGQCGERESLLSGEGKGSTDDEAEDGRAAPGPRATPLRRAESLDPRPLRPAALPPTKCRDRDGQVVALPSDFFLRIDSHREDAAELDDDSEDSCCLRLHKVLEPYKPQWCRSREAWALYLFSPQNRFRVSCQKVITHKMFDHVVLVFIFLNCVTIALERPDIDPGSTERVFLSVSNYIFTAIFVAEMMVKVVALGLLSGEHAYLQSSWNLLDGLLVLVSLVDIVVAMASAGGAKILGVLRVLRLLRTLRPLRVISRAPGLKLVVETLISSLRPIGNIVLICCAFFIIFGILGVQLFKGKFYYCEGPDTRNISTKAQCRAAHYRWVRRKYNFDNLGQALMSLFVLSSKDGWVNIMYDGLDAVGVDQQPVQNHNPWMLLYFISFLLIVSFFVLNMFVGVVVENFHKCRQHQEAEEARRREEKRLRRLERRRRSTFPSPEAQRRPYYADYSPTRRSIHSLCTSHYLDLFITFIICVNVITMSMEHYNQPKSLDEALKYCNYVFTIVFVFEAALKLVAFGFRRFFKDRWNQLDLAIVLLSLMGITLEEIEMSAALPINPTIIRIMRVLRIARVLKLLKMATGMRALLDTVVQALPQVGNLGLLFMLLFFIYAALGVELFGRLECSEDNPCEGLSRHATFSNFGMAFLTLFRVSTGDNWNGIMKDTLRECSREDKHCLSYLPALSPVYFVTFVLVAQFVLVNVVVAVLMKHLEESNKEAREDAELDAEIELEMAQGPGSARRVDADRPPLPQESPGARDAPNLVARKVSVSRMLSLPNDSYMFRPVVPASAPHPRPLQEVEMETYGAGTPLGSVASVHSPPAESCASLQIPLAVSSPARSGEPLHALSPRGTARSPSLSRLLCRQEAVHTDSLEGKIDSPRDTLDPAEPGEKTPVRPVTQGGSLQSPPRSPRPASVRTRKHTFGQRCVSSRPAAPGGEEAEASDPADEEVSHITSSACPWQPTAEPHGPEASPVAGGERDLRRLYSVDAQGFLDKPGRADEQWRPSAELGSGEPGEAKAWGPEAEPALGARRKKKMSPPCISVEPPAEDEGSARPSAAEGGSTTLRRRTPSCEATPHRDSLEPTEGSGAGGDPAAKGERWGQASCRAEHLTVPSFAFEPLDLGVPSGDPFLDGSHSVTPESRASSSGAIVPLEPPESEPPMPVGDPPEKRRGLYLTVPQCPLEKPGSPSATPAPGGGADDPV

On to `CCOC(=O)Nc1ccc(NCc2ccc(F)cc2)cc1N` [RTG, retigabine], for which, in the test on rat hind paw [1], the BK-induced nociception result is given as “significantly attenuated”. Besides, the “paw withdrawal latency on radiant heat exposure” value with rat hind paw [2] is given as “produced a similar effect”.

As for `CSCC[C@H](NC(=O)[C@H](CC(C)C)NC(=O)CN(C)C(=O)[C@H](Cc1ccccc1)NC(=O)[C@H](Cc1ccccc1)NC(=O)[C@H](CCC(N)=O)NC(=O)[C@H](CCC(N)=O)NC(=O)[C@@H]1CCCN1C(=O)[C@H](CCCCN)NC(=O)[C@@H]1CCCN1C(=O)[C@@H](N)CCCNC(=N)N)C(N)=O` [S9SP, [Sar^9]-Substance P], the “current amplitude in the presence of S9SP, % of basal value” at CaV3.2 (1 μM S9SP, wtCaV3.2, mean ± SEM, n = 13, SEM) was 69.8% ± 6.8%.

Regarding pertussis toxin [PTX], the “effect on S9SP-mediated T-type current inhibition” value in test [3] (400 ng/ml overnight pre-treatment) was “completely abolished”.

For the molecule `c1ccc(CN(CCN(Cc2ccccn2)Cc2ccccn2)Cc2ccccn2)nc1` [TPEN, N,N,N′,N′-Tetrakis(2-pyridylmethyl)ethylenediamine], the “effect on zinc levels elevated by ZnPy” value in test [4] (20 μM) is on record as “completely reversed the increase in fluorescence”. In addition, the “reversal of S9SP-induced LVA current inhibition” value in test [3] (10 μM TPEN bath application, still in the presence of 1 μM S9SP) is reported as “completely reversed”. For the same molecule, the “effect on SP- and H2O2-induced inhibitions of recombinant CaV3.2” value on CaV3.2 is recorded as “prevented”. The “effect on CaV3.2 currents in control conditions” value on CaV3.2 (10 μM) was “only marginal augmentation”.

Take `CCCCCC[C@H]1C(=O)O[C@H](C)[C@H](NC(=O)c2cccc(NC=O)c2O)C(=O)O[C@@H](C)[C@@H]1OC(=O)CC(C)C` [antimycin A]: the “inhibition of LVA current” value in test [3] (1 μM) is given as approximately 25%.

With `COCC(=O)O[C@]1(CCN(C)CCCc2nc3ccccc3[nH]2)CCc2cc(F)ccc2[C@@H]1C(C)C` [MIB, mibefradil], the “sensitivity of LVA currents to inhibitor” value in test [3] (3 μM) is listed as “sensitive”.

On to `CN(C)CCCn1cc(C2=C(c3c[nH]c4ccccc34)C(=O)NC2=O)c2ccccc21` [BIM I, bisindolylmaleimide I], for which the “effect on S9SP-mediated T-type current inhibition” value in test [3] (200 nM, 20 min pretreatment) is given as “without a significant effect”.

With “Arg-Pro-Lys-Pro-Gln-Gln-Phe-Phe-Sar-Leu-Met[O2]-NH2 [S9M11SP, [Sar^9, Met(O2)^11]-Substance P]”, in test [3] (1 μM), the LVA current inhibition entry was “quantitatively similar to that of S9SP”.

As to `[Cl-].[Cl-].[Zn+2]` [ZnCl2], the “intracellular zinc levels (FluoZin-3 fluorescence)” value in test [4] (1.5 mM) is “large responses”. The “inhibition of LVA current” value in test [3] (750 nM, n = 9) is reported as approximately 25%. In addition, the “maximal inhibition at the high-affinity site” value on CaV3.2 (S9SP-treated cells (1 μM)) is 44.1% ± 5.1%; on CaV3.2 (control cells), 9.9% ± 11.3%. The IC50 on CaV3.2 (after S9SP treatment, 1 μM S9SP in all ZnCl2 solutions, read-out: IC50(1), high-affinity site, zinc inhibition of CaV3.2) was 0.35 ± 0.25 nM; on CaV3.2 (after S9SP treatment, 1 μM S9SP in all ZnCl2 solutions, read-out: IC50(2), low-affinity site, zinc inhibition of CaV3.2) it was 923 ± 582 nM; at CaV3.2 (control conditions, two-component logistic fit, 6–12 experiments, read-out: IC50(1), high-affinity site, zinc inhibition of CaV3.2) it was 0.25 nM; on CaV3.2 (control conditions, two-component logistic fit, 6–12 experiments, read-out: IC50(2), low-affinity site, zinc inhibition of CaV3.2), 495 ± 326 nM.

Turning to `COc1ccccc1CN[C@H]1CCCN[C@H]1c1ccccc1.Cl.Cl` [CP-99994, (2S,3S)-3-(2-Methoxybenzylamino)-2-phenylpiperidine dihydrochloride], in test [3] (3 μM, 30 min pre-incubation, co-applied with 1 μM S9SP), the “effect on S9SP-induced LVA current inhibition” value is listed as “abolished the effect of S9SP”.

In the case of `OO` [H2O2], the “inhibition of LVA current” value in test [3] (300 μM bath application) was approximately 20%. Further, at CaV3.2 (H2O2), the “effect on recombinant CaV3.2” value is “inhibited”.

For `O[C@@H](CS)[C@@H](O)CS` (racemic) [DTT, dithiothreitol], in test [4] (1 mM), the “effect on zinc levels elevated by ZnPy” value was “did not alter the elevated zinc levels”. In addition, in test [3] (1 mM), the “effect on LVA current amplitude on its own” value was “did not significantly affect”. In addition, in test [3] (1 mM DTT before and during 1 μM S9SP), the “prevention of S9SP effect on LVA current when applied together” value was “rendered S9SP ineffective”. Also, the “reversal of S9SP-induced LVA current inhibition” value in test [3] (1 mM DTT in continued presence of 1 μM S9SP) was “completely reversed”. For the same molecule, the “reversal of antimycin A-induced LVA current inhibition” value in test [3] (1 mM DTT, 1 μM antimycin A) was “completely reversed”. The “reversal of H2O2-induced LVA current inhibition” value in test [3] (1 mM DTT, 300 μM H2O2) is “reversed”.
